Source: ChEMBL document CHEMBL1201862, “PubChem BioAssay data set” (2004)
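Test compounds were applied to cells in 96-well plates for 48 hours at 5 doses. Abbreviation: GI50, concentration required for 50% inhibition of growth.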 Active and inactive are the calls of the source. No stated cut-off is given here; in the data, active = GI50 up to about 1.1 µM and inactive = higher.

Key:
Assay in all cases: NCI-60 cell line screen, 48 h
A498 = system: A498
A549 = system: A549
CCRF-CEM = system: CCRF-CEM
DLD-1 = system: DLD-1
DMS-114 = system: DMS-114
DMS-273 = system: DMS-273
EKVX = system: EKVX
HCC 2998 = system: HCC 2998
HCT-116 = system: HCT-116
HCT-15 = system: HCT-15
HL-60 = system: HL-60
HOP-18 = system: HOP-18
HOP-62 = system: HOP-62
HOP-92 = system: HOP-92
HT-29 = system: HT-29
IGROV-1 = system: IGROV-1
K562 = system: K562
KM12 = system: KM12
LOX IMVI = system: LOX IMVI
M19-MEL = system: M19-MEL
MCF7 = system: MCF7
MOLT-4 = system: MOLT-4
Malme-3M = system: Malme-3M
NCI-H226 = system: NCI-H226
NCI-H23 = system: NCI-H23
NCI-H460 = system: NCI-H460
NCI-H522 = system: NCI-H522
NCI/ADR-RES = system: NCI/ADR-RES
OVCAR-3 = system: OVCAR-3
OVCAR-4 = system: OVCAR-4
OVCAR-5 = system: OVCAR-5
OVCAR-8 = system: OVCAR-8
RPMI-8226 = system: RPMI-8226
RXF 393 = system: RXF 393
SF-268 = system: SF-268
SF-295 = system: SF-295
SF-539 = system: SF-539
SK-MEL-28 = system: SK-MEL-28
SK-MEL-2 = system: SK-MEL-2
SK-MEL-5 = system: SK-MEL-5
SK-OV-3 = system: SK-OV-3
SN12C = system: SN12C
SNB-75 = system: SNB-75
SNB-78 = system: SNB-78
SW-620 = system: SW-620
U-251 = system: U-251
UACC-257 = system: UACC-257
UACC-62 = system: UACC-62
UO-31 = system: UO-31
XF498 = system: XF498
786-0 = system: 786-0
ACHN = system: ACHN
COLO 205 = system: COLO 205
LXFL 529 = system: LXFL 529
M14 = system: M14
SNB-19 = system: SNB-19
TK-10 = system: TK-10
CAKI-1 = system: CAKI-1
KM-20L2 = system: KM-20L2
SR = system: SR

Measured: GI50

O=C1c2ccccc2OCC1/C=N/O (configuration not stated)
63.7 µM: HCT-15
inactive: A498 > 100 µM | A549 > 100 µM | CCRF-CEM > 100 µM | DLD-1 > 91.4 µM | DMS-114 36.4 µM | DMS-273 99.8 µM | EKVX 65.6 µM | HCC 2998 > 100 µM | HCT-116 > 100 µM | HL-60 > 100 µM | HOP-18 > 100 µM | HOP-62 > 100 µM | HOP-92 > 55.1 µM | HT-29 62.7 µM | IGROV-1 82.2 µM | K562 > 100 µM | KM12 96.8 µM | LOX IMVI 31.3 µM | M19-MEL 70.1 µM | MCF7 29.6 µM | MOLT-4 > 100 µM | Malme-3M > 100 µM | NCI-H226 > 100 µM | NCI-H23 > 100 µM | NCI-H460 > 100 µM | NCI-H522 24.9 µM | NCI/ADR-RES > 100 µM | OVCAR-3 > 100 µM | OVCAR-4 > 62.5 µM | OVCAR-5 > 100 µM | OVCAR-8 > 100 µM | RPMI-8226 > 100 µM | RXF 393 32.4 µM | SF-268 > 58.9 µM | SF-295 > 100 µM | SF-539 76 µM | SK-MEL-28 51.6 µM | SK-MEL-2 86.3 µM | SK-MEL-5 > 85.5 µM | SK-OV-3 > 100 µM | SN12C > 80.5 µM | SNB-75 > 100 µM | SNB-78 > 72.9 µM | SW-620 > 100 µM | U-251 > 100 µM | UACC-257 > 56.1 µM | UACC-62 > 100 µM | UO-31 > 100 µM | XF498 > 100 µM

Cc1ccc(S(=O)(=O)C(C#N)c2nc3ccccc3nc2-n2ccnc2)cc1 (configuration not stated)
> 100 µM: HCT-15
inactive: 786-0 > 100 µM | A549 > 100 µM | ACHN > 100 µM | CCRF-CEM > 100 µM | COLO 205 > 100 µM | DLD-1 > 100 µM | DMS-114 > 100 µM | DMS-273 > 100 µM | EKVX > 100 µM | HCC 2998 > 100 µM | HCT-116 > 100 µM | HL-60 > 100 µM | HOP-18 > 100 µM | HOP-62 > 100 µM | HOP-92 > 100 µM | HT-29 > 100 µM | IGROV-1 > 100 µM | K562 > 100 µM | KM12 > 100 µM | LXFL 529 > 100 µM | M14 > 100 µM | M19-MEL > 100 µM | MOLT-4 > 100 µM | Malme-3M > 100 µM | NCI-H226 54.8 µM | NCI-H23 > 100 µM | NCI-H460 > 100 µM | NCI-H522 > 100 µM | OVCAR-3 > 100 µM | OVCAR-4 > 100 µM | OVCAR-5 > 100 µM | OVCAR-8 > 100 µM | RPMI-8226 > 100 µM | SF-268 > 100 µM | SF-295 > 100 µM | SF-539 > 100 µM | SK-MEL-28 > 100 µM | SK-MEL-2 > 100 µM | SK-MEL-5 > 100 µM | SK-OV-3 > 100 µM | SN12C > 100 µM | SNB-19 > 100 µM | SNB-75 > 100 µM | SNB-78 > 100 µM | TK-10 > 100 µM | U-251 > 100 µM | UACC-257 > 100 µM | UO-31 > 100 µM | XF498 > 100 µM

Cc1[nH]c(=O)[nH]c(=O)c1/C=C/C(=O)NC(CO)C[S+]([O-])Cc1ccccc1 (configuration not stated)
inactive: A498 > 300 µM | A549 > 300 µM | CAKI-1 > 300 µM | CCRF-CEM > 300 µM | COLO 205 > 300 µM | DLD-1 > 300 µM | DMS-114 > 300 µM | DMS-273 > 300 µM | EKVX > 300 µM | HCC 2998 > 300 µM | HCT-116 > 300 µM | HL-60 > 300 µM | HOP-18 > 289 µM | HOP-62 > 300 µM | HOP-92 > 190 µM | HT-29 > 300 µM | IGROV-1 > 300 µM | K562 > 300 µM | KM-20L2 > 300 µM | KM12 299 µM | LOX IMVI > 300 µM | M19-MEL > 300 µM | MCF7 > 300 µM | MOLT-4 > 300 µM | Malme-3M > 300 µM | NCI-H226 > 300 µM | NCI-H23 > 300 µM | NCI-H460 > 300 µM | NCI-H522 > 300 µM | NCI/ADR-RES > 300 µM | OVCAR-3 > 300 µM | OVCAR-5 > 300 µM | OVCAR-8 > 300 µM | RPMI-8226 > 300 µM | RXF 393 > 300 µM | SF-268 > 300 µM | SF-295 > 300 µM | SF-539 > 300 µM | SK-MEL-28 > 300 µM | SK-MEL-2 > 277 µM | SK-MEL-5 > 300 µM | SK-OV-3 > 300 µM | SN12C > 300 µM | SNB-19 > 300 µM | SNB-75 296 µM | SNB-78 > 300 µM | SW-620 > 300 µM | U-251 > 300 µM | UACC-257 > 300 µM | UACC-62 > 300 µM | UO-31 > 300 µM | XF498 > 300 µM
> 300 µM: HCT-15

COc1ccccc1NC(=O)CSC(N)=O
active: HL-60 0.349 µM
inactive: 786-0 19.1 µM | A498 > 100 µM | A549 72.6 µM | ACHN 42.3 µM | CAKI-1 33.6 µM | CCRF-CEM 12.9 µM | COLO 205 > 100 µM | DLD-1 42.1 µM | DMS-114 46.2 µM | DMS-273 34.4 µM | EKVX 60.1 µM | HCC 2998 > 100 µM | HCT-116 18.8 µM | HOP-18 82.8 µM | HOP-62 24.7 µM | HOP-92 > 100 µM | HT-29 47.2 µM | IGROV-1 66.5 µM | K562 46 µM | KM-20L2 > 100 µM | KM12 49.5 µM | LOX IMVI 36.4 µM | M14 45.4 µM | M19-MEL 29.2 µM | Malme-3M 43 µM | NCI-H226 39.2 µM | NCI-H23 69.3 µM | NCI-H460 32.7 µM | NCI-H522 33.4 µM | OVCAR-3 57.8 µM | OVCAR-4 > 100 µM | OVCAR-5 > 100 µM | OVCAR-8 68.2 µM | RPMI-8226 39.4 µM | SF-268 53.8 µM | SF-295 38.4 µM | SF-539 34 µM | SK-MEL-28 48.1 µM | SK-MEL-2 22.9 µM | SK-MEL-5 47.8 µM | SK-OV-3 > 100 µM | SN12C 62.2 µM | SNB-19 > 100 µM | SNB-75 30 µM | SNB-78 50.4 µM | SR 25.8 µM | SW-620 32.2 µM | TK-10 > 100 µM | U-251 25.6 µM | UACC-257 62.2 µM | UACC-62 25.8 µM | XF498 30.8 µM
42.8 µM: HCT-15
